Four compounds from patent publication US20190350909A1, “COMPOSITIONS AND METHODS FOR MODULATING HAIR GROWTH” (priority 2018, published 2019) can be followed below.

What all share (format): in vivo, C57BL/6 mice
The test system of one experiment is hair cycle. The experiment in a line: Hair cycle analysis after topical treatment of shaved dorsal skin of telogen-stage mice. Particulars: topical treatment during telogen, macroscopic and H&E follicle morphology (FIG. 2A-2C). Here is the method:
(§1) Wildtype male and female 49-day old C57BL/6 mice were obtained from Jackson Laboratories for all topical experiments. All animals were maintained in UCLA's Division of Laboratory Medicine (DLAM)-approved pathogen-free barrier facilities and procedures were performed using protocols that adhere to the standards of the UCLA Animal Research Committee (ARC), Office of Animal Research Oversight (OARO), and the National Institutes of Health (NIH).
(§2) All drugs were suspended in DMSO and aliquoted at approximately 5 times IC50 or EC50 for the purposes of penetrating the epidermal barrier upon in vivo application. Aliquots were then mixed with the appropriate volume of Premium Lecithin Organogel (PLO) Base (Transderma Pharmaceuticals Inc.) and topically applied onto the shaved dorsal skin of 49 day old telogen-stage mice. Three experiment timepoints were used: acute treatment (two doses across 48 hours), 1 week treatment (three doses across five days) or long-term studies (one dose three times a week for approximately 1.5 weeks). Full-thickness dorsal skin was collected for histological analysis, cryosectioning, RNA isolation, and/or for epidermal stem cell isolation according to well-established FACS protocol.
Hair cycles were assessed macroscopically by observational and photographic documentation. A scale was established to grade hair cycle stage: 1) telogen (pink, white skin when dorsally shaved); 2) pigmentation (broad blue/grey pigment spots/patches on shaved dorsal area); 3) hair growth (dark pigmentation coupled with small patches of fur); 4) anagen (dark, full patches of fur within dorsal area) in relation to number of doses and elapsed time of treatment. H&E images of all treatment conditions were imaged at 20× magnification to assess morphological changes in control and treated skin. Hair cycle stages were also evaluated by follicular morphology into respective telogen, telogen-to-anagen transition, or anagen categories.
A set of full-thickness skin samples were obtained from post-mortem tissue harvesting, fixed overnight in 4% paraformaldehyde, and then dehydrated for paraffin embedding and slide generation; hematoxylin and eosin staining according to standard protocol. For immunohistochemistry, formalin-fixed, paraffin-embedded tissue slides were cleared and rehydrated through a series of ethanol washes. Antigen retrieval (20 min in pressure cooker, microwaved at 100 power) was performed with 10 mM citrate. Slides were incubated in hydrogen peroxide (30 min at 4 C) and then blocked with 10% goat serum/0.1% tween for 1 hour at room temperature. Primary antibodies were added and incubated overnight. The following antibodies were used—rabbit pCreb (Cell Signaling 9198, 1:800); rabbit Sox9 (Abcam 185966, 1:800); rabbit Ki67 sp6 (Abcam 16667, 1:50); rabbit PCNA (Cell Signaling 13110, 1:700); rabbit cFos (Abcam 7963, 1:100). Sections were washed the following day with 0.1% PBST and incubated with rabbit secondary HRP-labeled polymer (Dako) for 1 hour at room temperature, and then quickly washed with 0.1% PBST and PBS. AEC chromogen (Vector) was used for the colometric development reaction. Slides were then briefly counterstained with hemotoxylin, mounted with Faramount Aqueous Mounting Media (Dako) and sealed for subsequent visualization by light microscopy.
Bright-field immunohistochemistry and hematoxylin/eosin-stained images were captured using an Olympus BX51 light microscope at 20× magnification or 40× using oil immersion.

Experiment [1] relates to lactate dehydrogenase (Ldh). The experiment in a line: Ldh activity assay (in situ and plate reader) on treated skin/epidermis. Conditions: epidermis isolated from treated male or female animals (FIG. 4A). The protocol:
as §1, §2

The test system of a further experiment is Ldha protein, pCreb. The experiment in a line: Western blot of epidermis from treated animals for pCreb and Ldha protein. Conditions: epidermis from treated animals (FIG. 4C). Here is the method: Wildtype male and female 49-day old C57BL/6 mice were obtained from Jackson Laboratories for all topical experiments. All animals were maintained in UCLA's Division of Laboratory Medicine (DLAM)-approved pathogen-free barrier facilities and procedures were performed using protocols that adhere to the standards of the UCLA Animal Research Committee (ARC), Office of Animal Research Oversight (OARO), and the National Institutes of Health (NIH). […] All drugs were suspended in DMSO and aliquoted at approximately 5 times IC50 or EC50 for the purposes of penetrating the epidermal barrier upon in vivo application. […] Three experiment timepoints were used: acute treatment (two doses across 48 hours), 1 week treatment (three doses across five days) or long-term studies (one dose three times a week for approximately 1.5 weeks). Full-thickness dorsal skin was collected for histological analysis, cryosectioning, RNA isolation, and/or for epidermal stem cell isolation according to well-established FACS protocol.
Background: In western blotting, separated proteins are transferred to a membrane and probed.

The next experiment concerns Creb (pCreb). Put plainly: Immunohistochemistry of treated skin for Creb signaling, HFSC and proliferation markers. The protocol:
as §1
as §2, with “protocol. […]” for “protocol.”

The structures appear in SMILES notation. “Also recorded” adds a separate entry of the source.

As to `O=S(=O)(NCCNC/C=C/c1ccc(Br)cc1)c1cccc2cnccc12` [H89, reference compound], the “effect on hair cycle progression / reentry into anagen” value is on record as “slowed hair cycle progression; also recorded: delays reentry into anagen; also recorded: slowed the hair cycle dramatically” in the experiment on hair cycle and “delayed reentry into anagen” with hair cycle (listed as H-89). In addition, the “relative Ldh activity in lysed epidermis” value in experiment [1] is reported as “did not demonstrate altered Ldh activity”. The “Creb activation (pCreb) (western blot)” value with Ldha protein, pCreb was “inhibition of Creb”.
Turning to `COc1ccc(NC(=O)CSc2nc3c(cc2C#N)=CC2OCCOC2C=3)c(OC)c1` (stereo not shown) [#61], in the experiment with hair cycle, the “effect on hair cycle progression / reentry into anagen” value is on record as “accelerated reentry into anagen; also recorded: strongly accelerate the hair cycle; also recorded: accelerated hair growth”.
The same measure, in the same setting: then `CCOc1ccc(OCC)c(NC(=O)CSc2nc3c(cc2C#N)=CC2OCCOC2C=3)c1` (stereo not shown) [#62], with “strongly accelerate the hair cycle”.
For `COc1ccccc1NC(=O)CSc1nc2c(cc1C#N)=CC1OCCOC1C=2` (stereo not shown) [#44], the “effect on hair cycle progression / reentry into anagen” value in the experiment on hair cycle is reported as “accelerated reentry into anagen; also recorded: strongly accelerate the hair cycle; also recorded: accelerated hair growth”. Besides, the “activation of Creb (pCreb) by immunohistochemistry” value in the experiment on Creb (pCreb) (acute 48 hours topical treatment, HFSCs and IFE (FIG. 3B)) was “activation of Creb (pCreb) in HFSCs (and IFE)”. In the experiment on Creb (pCreb) (acute treatment (FIG. 3B)), the “canonical Creb target expression (cFos staining)” value is “induced levels of transcript for canonical Creb targets”. Moreover, the “relative Ldh activity in lysed epidermis” value in experiment [1] is “high Ldh activity”.
